Patent US20250304559A1, “Ether-Linked Antiviral Compounds” (Pfizer Inc., priority 2021, published 2025)
Where two headings read alike, the source gives them in different places.

What was measured:
SARS-CoV-2 3CL protease = biological target: T1, SARS-CoV-2 3CL protease (Severe acute respiratory syndrome coronavirus 2, UniProt P0DTD1); assay: SARS-CoV-2 Coronavirus 3C Protease FRET Assay; format: biochemical; settings: Morrison equation fit, 15 nM enzyme, 25 μM peptide substrate
T1 construct: measures the activity of full-length SARS-CoV-2 3CL protease

[1] = system: SARS-CoV-2 (USA_WA1/2020); assay: Antiviral Activity from SARS-CoV-2 Infection (cytopathic effect, Cell Titer-Glo); format: cell-based; settings: VeroE6 cells enriched for hACE2, MOI 0.002, 3-day incubation, tested alone or with P-gp inhibitor CP-100356 2 μM (table does not say which), read-out: Geometric Mean EC50
[2] = Examples 14-78 and 114 (second head of Table 2), read-out: Geometric Mean Ki (nM) IC50
[3] = Examples 1-13, 60 minutes at 23° C., read-out: Geometric Mean Ki
[4] = Severe acute respiratory syndrome coronavirus 2, Vero C1008, 72 h

| Compound | Ki (SARS-CoV-2 3CL protease; [2]) [nM] | EC50 [1] [nM] | Ki (SARS-CoV-2 3CL protease; [3]) [nM] | EC50 [1, 4] [nM] |
| --- | --- | --- | --- | --- |
| CC(C)[C@H](NS(C)(=O)=O)C(=O)N1CCC2(CC2)C[C@H]1C(=O)N[C@@H](C[C@@H]1CCNC1=O)C(=O)COc1ccc(F)cc1F (single isomer, unassigned) [Example 66, (5R*)-N-{(2S)-4-(2,4-difluorophenoxy)-3-oxo-1-[(3S)-2-oxopyrrolidin-3-yl]butan-2-yl}-6-[N-(methanesulfonyl)-L-valyl]-6-azaspiro[2.5]octane-5-carboxamide, DIAST-2] | 15.7 | 669 |  |  |
| CC(C)[C@H](NC(=O)C(F)(F)F)C(=O)N1C[C@H]2[C@@H]([C@H]1C(=O)N[C@H](C[C@@H]1CCNC1=O)C(=O)COc1ccc(F)cc1F)C2(C)C [Example 2, (1R,2S,5S)-N-{(2R)-4-(2,4-difluorophenoxy)-3-oxo-1-[(3S)-2-oxopyrrolidin-3-yl]butan-2-yl}-6,6-dimethyl-3-[N-(trifluoroacetyl)-L-valyl]-3-azabicyclo[3.1.0]hexane-2-carboxamide] |  |  | 172 | 74.4 |
| CC(C)[C@H](NS(=O)(=O)C(F)(F)F)C(=O)N1C[C@H]2[C@@H]([C@H]1C(=O)N[C@@H](C[C@@H]1CCNC1=O)C(=O)COc1cc(C(F)(F)F)nn1C)C2(C)C [Example 11, (1R,2S,5S)-6,6-dimethyl-N-{(2S)-4-{[1-methyl-3-(trifluoromethyl)-1H-pyrazol-5-yl]oxy}-3-oxo-1-[(3S)-2-oxopyrrolidin-3-yl]butan-2-yl}-3-{N-[(trifluoromethyl)sulfonyl]-L-valyl}-3-azabicyclo[3.1.0]hexane-2-carboxamide] |  |  | 13.5 | 2030 |
| CC(C)[C@H](NC(=O)C(F)(F)F)C(=O)N1C[C@H]2[C@@H]([C@H]1C(=O)N[C@@H](C[C@@H]1CCNC1=O)C(=O)COc1nnc3c(F)cccn13)C2(C)C [Example 75, (1R,2S,5S)-N-{(2S)-4-[(8-fluoro[1,2,4]triazolo[4,3-a]pyridin-3-yl)oxy]-3-oxo-1-[(3S)-2-oxopyrrolidin-3-yl]butan-2-yl}-6,6-dimethyl-3-[N-(trifluoroacetyl)-L-valyl]-3-azabicyclo[3.1.0]hexane-2-carboxamide] | 2900 |  |  | > 76800 |
| CC(C)[C@H](NS(=O)(=O)C(F)(F)F)C(=O)N1C[C@H]2[C@@H]([C@H]1C(=O)N[C@@H](C[C@@H]1CCNC1=O)C(=O)COc1ccc(F)cc1F)C2(C)C [Example 4, (1R,2S,5S)-N-{(2S)-4-(2,4-difluorophenoxy)-3-oxo-1-[(3S)-2-oxopyrrolidin-3-yl]butan-2-yl}-6,6-dimethyl-3-{N-[(trifluoromethyl)sulfonyl]-L-valyl}-3-azabicyclo[3.1.0]hexane-2-carboxamide] |  |  | 6.34 | 395 |
| COC(=O)N[C@H](C(=O)N1C[C@H]2[C@@H]([C@H]1C(=O)N[C@@H](C[C@@H]1CCNC1=O)C(=O)COc1ccc(F)cc1)C2(C)C)C(C)(C)C [Example 21, methyl {(2S)-1-[(1R,2S,5S)-2-({(2S)-4-(4-fluorophenoxy)-3-oxo-1-[(3S)-2-oxopyrrolidin-3-yl]butan-2-yl}carbamoyl)-6,6-dimethyl-3-azabicyclo[3.1.0]hexan-3-yl]-3,3-dimethyl-1-oxobutan-2-yl}carbamate] | 2.2 |  |  | 18.8 |
| CC(C)[C@H](NC(=O)C(F)(F)F)C(=O)N1C[C@H]2[C@@H]([C@H]1C(=O)N[C@@H](C[C@@H]1CCNC1=O)C(=O)COc1ccc(F)cc1)C2(C)C [Example 52, (1R,2S,5S)-N-{(2S)-4-(4-fluorophenoxy)-3-oxo-1-[(3S)-2-oxopyrrolidin-3-yl]butan-2-yl}-6,6-dimethyl-3-[N-(trifluoroacetyl)-L-valyl]-3-azabicyclo[3.1.0]hexane-2-carboxamide] | 10.5 |  |  | 73.3 |
| CC(C)C[C@@H](C(=O)N1C[C@H]2[C@@H]([C@H]1C(=O)N[C@@H](C[C@@H]1CCNC1=O)C(=O)COc1cc(C(F)(F)F)nn1C)C2(C)C)N(C)C(C)C (single isomer, unassigned) [Example 73, (1R,2S,5S)-6,6-dimethyl-3-[N-methyl-N-(propan-2-yl)-L-leucyl]-N-{(2R*)-4-{[1-methyl-3-(trifluoromethyl)-1H-pyrazol-5-yl]oxy}-3-oxo-1-[(3S)-2-oxopyrrolidin-3-yl]butan-2-yl}-3-azabicyclo[3.1.0]hexane-2-carboxamide, DIAST-2] | 962 | 140 |  |  |
| CCn1nc(C)cc1OCC(=O)[C@H](C[C@@H]1CCNC1=O)NC(=O)[C@@H]1[C@@H]2[C@H](CN1C(=O)[C@@H](NC(=O)OC)C(C)(C)C)C2(C)C [Example 33, methyl {(2S)-1-[(1R,2S,5S)-2-({(2S)-4-[(1-ethyl-3-methyl-1H-pyrazol-5-yl)oxy]-3-oxo-1-[(3S)-2-oxopyrrolidin-3-yl]butan-2-yl}carbamoyl)-6,6-dimethyl-3-azabicyclo[3.1.0]hexan-3-yl]-3,3-dimethyl-1-oxobutan-2-yl}carbamate] | 3.04 |  |  | 1270 |
| CC(C)(C)[C@H](NS(C)(=O)=O)C(=O)N1C[C@H]2[C@@H]([C@H]1C(=O)N[C@@H](C[C@@H]1CCNC1=O)C(=O)COc1ccc(F)cc1F)C2(C)C [Example 13, (1R,2S,5S)-N-{(2S)-4-(2,4-difluorophenoxy)-3-oxo-1-[(3S)-2-oxopyrrolidin-3-yl]butan-2-yl}-6,6-dimethyl-3-[3-methyl-N-(methylsulfonyl)-L-valyl]-3-azabicyclo[3.1.0]hexane-2-carboxamide] |  |  | 1.78 | 98.6 |
| CC(C)(C)[C@H](NS(=O)(=O)C(F)(F)F)C(=O)N1C[C@H]2[C@@H]([C@H]1C(=O)N[C@@H](C[C@@H]1CC(=O)NC1=O)C(=O)COc1ccc(F)cc1F)C2(C)C [Example 44, (1R,2S,5S)-N-{(2S)-4-(2,4-difluorophenoxy)-1-[(3R)-2,5-dioxopyrrolidin-3-yl]-3-oxobutan-2-yl}-6,6-dimethyl-3-[3-methyl-N-(trifluoromethanesulfonyl)-L-valyl]-3-azabicyclo[3.1.0]hexane-2-carboxamide] | 8.95 |  |  | 408 |
| CC(C)[C@H](NC(=O)C(F)(F)F)C(=O)N1C[C@H]2[C@@H]([C@H]1C(=O)N[C@@H](C[C@@H]1CCNC1=O)C(=O)COc1cc(F)ccc1F)C2(C)C [Example 53, (1R,2S,5S)-N-{(2S)-4-(2,5-difluorophenoxy)-3-oxo-1-[(3S)-2-oxopyrrolidin-3-yl]butan-2-yl}-6,6-dimethyl-3-[N-(trifluoroacetyl)-L-valyl]-3-azabicyclo[3.1.0]hexane-2-carboxamide] | 12 |  |  | 72.8 |
| CC(C)[C@H](NC(=O)C(F)(F)F)C(=O)N1C[C@H]2[C@@H]([C@H]1C(=O)N[C@@H](C[C@@H]1CCNC1=O)C(=O)COc1ccc(F)c(F)c1)C2(C)C [Example 48, (1R,2S,5S)-N-{(2S)-4-(3,4-difluorophenoxy)-3-oxo-1-[(3S)-2-oxopyrrolidin-3-yl]butan-2-yl}-6,6-dimethyl-3-[N-(trifluoroacetyl)-L-valyl]-3-azabicyclo[3.1.0]hexane-2-carboxamide] | 7.87 |  |  | 44.3 |
| COc1ccc(COCC(=O)[C@H](C[C@@H]2CCNC2=O)NC(=O)[C@@H]2[C@@H]3[C@H](CN2C(=O)[C@@H](NC(=O)C(F)(F)F)C(C)(C)C)C3(C)C)cc1 [Example 14, (1R,2S,5S)-N-{(2S)-4-[(4-methoxyphenyl)methoxy]-3-oxo-1-[(3S)-2-oxopyrrolidin-3-yl]butan-2-yl}-6,6-dimethyl-3-[3-methyl-N-(trifluoroacetyl)-L-valyl]-3-azabicyclo[3.1.0]hexane-2-carboxamide] | 3.48 |  |  | 48.7 |
